The IC50 is the concentration at which inhibition is half-maximal. High values mean lower potency, low ones higher potency.

We go through 3 compounds from ChEMBL document CHEMBL3997767, “Magnetic Microbead Affinity Selection Screening (MagMASS) of Botanical Extracts for Inhibitors of 15-Lipoxygenase” (J Nat Prod, 2016).

SMILES strings stand for the structures. Active and inactive are the calls of the source. No cut-off for these calls is given here.

Test [1] relates to Glycine max. In words: Binding affinity to soybean p1 15-LOX at 100 pmol after 1 hr by magnetic microbead affinity selection screening method.
Test [2] concerns the target T1, Polyunsaturated fatty acid lipoxygenase ALOX15 (Homo sapiens, UniProt P16050).
T1 sequence (P16050 whole entry): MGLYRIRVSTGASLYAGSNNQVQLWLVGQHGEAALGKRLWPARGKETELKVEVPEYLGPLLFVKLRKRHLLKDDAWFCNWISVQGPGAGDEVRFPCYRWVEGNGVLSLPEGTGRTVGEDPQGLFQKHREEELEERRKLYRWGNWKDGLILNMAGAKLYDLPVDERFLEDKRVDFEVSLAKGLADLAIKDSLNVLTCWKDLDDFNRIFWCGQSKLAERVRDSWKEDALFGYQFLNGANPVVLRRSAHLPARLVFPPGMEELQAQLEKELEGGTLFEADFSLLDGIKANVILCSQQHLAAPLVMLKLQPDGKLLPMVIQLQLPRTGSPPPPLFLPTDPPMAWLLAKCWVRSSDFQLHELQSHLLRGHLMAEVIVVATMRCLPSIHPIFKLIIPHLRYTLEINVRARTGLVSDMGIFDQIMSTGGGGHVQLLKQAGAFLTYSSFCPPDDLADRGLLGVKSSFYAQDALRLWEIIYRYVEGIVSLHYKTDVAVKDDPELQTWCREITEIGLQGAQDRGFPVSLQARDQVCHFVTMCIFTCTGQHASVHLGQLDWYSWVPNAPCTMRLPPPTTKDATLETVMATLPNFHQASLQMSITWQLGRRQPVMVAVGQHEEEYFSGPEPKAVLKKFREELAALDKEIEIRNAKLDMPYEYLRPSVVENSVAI
The experiment in a line: Inhibition of 15-LOX (unknown origin).

The test system of test [3] is Glycine max. The experiment in a line: Binding affinity to soybean p1 15-LOX at 10 ug after 1 hr by magnetic microbead affinity selection screening method.
A short description of test [4]: Inhibition of 15-LOX in soybean using linoleic acid as substrate measured for 30 to 90 secs. Set-up: species or system Glycine max.

`O=c1c2ccccc2[se]n1-c1ccccc1`: the result in the test on Glycine max [1] was inactive.

With `O=c1cc(-c2ccc(O)c(O)c2)oc2cc(O)cc(O)c12` [LUTEOLIN], the result in the test with Glycine max [1] was Active. For the same compound, the concentration for half-maximal inhibition (IC50) in test [2] came to 5 µM.

As to `C[C@@H]1O[C@@H](Oc2c(-c3ccc(O)c(O)c3)oc3cc(O)cc(O)c3c2=O)[C@H](O)[C@H](O)[C@H]1O` [QUERCITRIN], the result with Glycine max [3] was Active. The compound also gave a concentration for half-maximal inhibition (IC50) in test [4] of 79.8 µM.
